The values that follow come from publication PMC4153739 (Biochemistry, 2012).

Structures are written as SMILES.

Data set [1] concerns NR1–2a-containing NMDA receptor subtypes. The data set is classed as cell-based, rat. As to conditions: 10 µM.
Data set [2] is classed as physicochemical. As to conditions: pH 7.
For data set [3], the target named is NR1-2b/NR2C NMDA receptor (Rattus norvegicus, UniProt P35439+Q00961). Type of data set: cell-based. As to conditions: 10 µM.
Data set [4] addresses NR1-2b/NR2B NMDA receptor (Rattus norvegicus, UniProt P35439+Q00960). Type of data set: cell-based.
In data set [5] the target is NR1-2b/NR2D NMDA receptor (Rattus norvegicus, UniProt P35439+Q62645). Type of data set: cell-based. As to conditions: 10 µM.
Data set [6] has as its system 6 Hz partial psychomotor seizure.

Sequence of NR1-2b/NR2B NMDA receptor (Q00960 27-1482, other chains not shown): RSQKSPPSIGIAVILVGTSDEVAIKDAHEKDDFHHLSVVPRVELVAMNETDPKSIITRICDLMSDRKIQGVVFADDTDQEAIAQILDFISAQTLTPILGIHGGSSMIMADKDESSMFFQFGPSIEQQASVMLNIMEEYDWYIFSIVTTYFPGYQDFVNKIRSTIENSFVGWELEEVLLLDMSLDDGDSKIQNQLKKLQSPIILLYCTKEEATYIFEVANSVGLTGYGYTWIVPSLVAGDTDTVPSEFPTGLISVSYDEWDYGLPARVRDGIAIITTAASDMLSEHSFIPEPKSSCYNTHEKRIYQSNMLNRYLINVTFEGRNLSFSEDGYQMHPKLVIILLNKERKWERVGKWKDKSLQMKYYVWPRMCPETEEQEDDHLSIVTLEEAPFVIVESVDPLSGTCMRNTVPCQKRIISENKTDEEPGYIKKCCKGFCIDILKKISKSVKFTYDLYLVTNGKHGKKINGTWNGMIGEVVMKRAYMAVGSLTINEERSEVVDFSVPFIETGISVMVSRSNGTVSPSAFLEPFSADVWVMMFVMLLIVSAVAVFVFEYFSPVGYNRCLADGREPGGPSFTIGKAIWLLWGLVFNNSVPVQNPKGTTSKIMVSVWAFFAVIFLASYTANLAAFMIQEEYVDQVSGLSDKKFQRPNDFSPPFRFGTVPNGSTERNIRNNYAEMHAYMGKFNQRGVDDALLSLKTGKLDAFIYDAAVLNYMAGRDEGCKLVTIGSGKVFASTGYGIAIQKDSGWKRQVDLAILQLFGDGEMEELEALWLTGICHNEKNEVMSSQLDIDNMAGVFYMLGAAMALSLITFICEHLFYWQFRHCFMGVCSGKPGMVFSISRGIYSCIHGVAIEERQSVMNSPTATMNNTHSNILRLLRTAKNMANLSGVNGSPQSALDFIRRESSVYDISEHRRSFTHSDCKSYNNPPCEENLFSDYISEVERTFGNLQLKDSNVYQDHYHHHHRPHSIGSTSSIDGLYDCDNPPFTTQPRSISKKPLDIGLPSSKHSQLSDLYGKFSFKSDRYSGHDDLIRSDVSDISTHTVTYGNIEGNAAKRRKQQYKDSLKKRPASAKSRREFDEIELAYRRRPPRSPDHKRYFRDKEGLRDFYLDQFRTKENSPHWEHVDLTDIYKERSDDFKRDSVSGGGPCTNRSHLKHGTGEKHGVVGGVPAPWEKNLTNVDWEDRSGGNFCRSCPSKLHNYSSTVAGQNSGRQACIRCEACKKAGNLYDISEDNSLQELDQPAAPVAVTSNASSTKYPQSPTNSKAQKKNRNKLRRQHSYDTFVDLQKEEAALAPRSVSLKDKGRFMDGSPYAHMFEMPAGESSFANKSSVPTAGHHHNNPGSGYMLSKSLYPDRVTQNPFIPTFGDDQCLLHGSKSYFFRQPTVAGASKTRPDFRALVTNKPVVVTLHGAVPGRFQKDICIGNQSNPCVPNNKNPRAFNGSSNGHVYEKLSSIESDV
Sequence of NR1-2b/NR2D NMDA receptor (Q62645 28-1323, other chains not shown): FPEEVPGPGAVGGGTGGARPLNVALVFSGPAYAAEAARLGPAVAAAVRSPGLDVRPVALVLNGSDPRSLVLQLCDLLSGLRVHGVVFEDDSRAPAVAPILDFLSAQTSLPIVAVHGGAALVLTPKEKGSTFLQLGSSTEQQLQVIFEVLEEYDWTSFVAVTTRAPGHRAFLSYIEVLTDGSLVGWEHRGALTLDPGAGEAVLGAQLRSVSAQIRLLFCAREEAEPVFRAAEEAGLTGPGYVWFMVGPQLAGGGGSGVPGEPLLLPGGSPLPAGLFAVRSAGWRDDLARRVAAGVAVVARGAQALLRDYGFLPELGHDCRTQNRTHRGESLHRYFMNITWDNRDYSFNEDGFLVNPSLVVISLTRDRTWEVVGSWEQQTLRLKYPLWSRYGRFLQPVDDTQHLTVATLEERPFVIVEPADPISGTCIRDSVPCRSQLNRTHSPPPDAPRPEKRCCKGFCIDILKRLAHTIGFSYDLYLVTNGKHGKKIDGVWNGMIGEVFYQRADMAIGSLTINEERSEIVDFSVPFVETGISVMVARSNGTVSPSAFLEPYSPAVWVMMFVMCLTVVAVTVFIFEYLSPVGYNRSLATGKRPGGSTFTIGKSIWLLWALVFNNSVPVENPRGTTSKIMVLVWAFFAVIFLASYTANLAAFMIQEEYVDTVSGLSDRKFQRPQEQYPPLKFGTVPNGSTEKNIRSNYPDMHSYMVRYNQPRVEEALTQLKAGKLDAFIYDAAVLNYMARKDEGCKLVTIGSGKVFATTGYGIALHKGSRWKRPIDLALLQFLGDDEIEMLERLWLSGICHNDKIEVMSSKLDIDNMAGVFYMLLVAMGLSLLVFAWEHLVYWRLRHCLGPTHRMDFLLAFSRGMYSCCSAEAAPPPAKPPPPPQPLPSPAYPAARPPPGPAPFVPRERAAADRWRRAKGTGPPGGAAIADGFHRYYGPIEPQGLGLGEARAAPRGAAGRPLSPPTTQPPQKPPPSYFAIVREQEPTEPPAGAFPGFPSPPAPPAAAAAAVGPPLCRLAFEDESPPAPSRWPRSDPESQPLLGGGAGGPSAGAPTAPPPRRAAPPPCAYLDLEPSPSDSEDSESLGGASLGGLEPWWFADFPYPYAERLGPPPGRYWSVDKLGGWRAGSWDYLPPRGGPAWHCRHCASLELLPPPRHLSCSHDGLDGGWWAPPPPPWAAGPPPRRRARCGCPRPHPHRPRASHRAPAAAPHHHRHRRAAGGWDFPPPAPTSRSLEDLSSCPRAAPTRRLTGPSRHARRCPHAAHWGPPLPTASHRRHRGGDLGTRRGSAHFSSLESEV
Sequence of NR1-2b/NR2C NMDA receptor (Q00961 20-1237, other chains not shown): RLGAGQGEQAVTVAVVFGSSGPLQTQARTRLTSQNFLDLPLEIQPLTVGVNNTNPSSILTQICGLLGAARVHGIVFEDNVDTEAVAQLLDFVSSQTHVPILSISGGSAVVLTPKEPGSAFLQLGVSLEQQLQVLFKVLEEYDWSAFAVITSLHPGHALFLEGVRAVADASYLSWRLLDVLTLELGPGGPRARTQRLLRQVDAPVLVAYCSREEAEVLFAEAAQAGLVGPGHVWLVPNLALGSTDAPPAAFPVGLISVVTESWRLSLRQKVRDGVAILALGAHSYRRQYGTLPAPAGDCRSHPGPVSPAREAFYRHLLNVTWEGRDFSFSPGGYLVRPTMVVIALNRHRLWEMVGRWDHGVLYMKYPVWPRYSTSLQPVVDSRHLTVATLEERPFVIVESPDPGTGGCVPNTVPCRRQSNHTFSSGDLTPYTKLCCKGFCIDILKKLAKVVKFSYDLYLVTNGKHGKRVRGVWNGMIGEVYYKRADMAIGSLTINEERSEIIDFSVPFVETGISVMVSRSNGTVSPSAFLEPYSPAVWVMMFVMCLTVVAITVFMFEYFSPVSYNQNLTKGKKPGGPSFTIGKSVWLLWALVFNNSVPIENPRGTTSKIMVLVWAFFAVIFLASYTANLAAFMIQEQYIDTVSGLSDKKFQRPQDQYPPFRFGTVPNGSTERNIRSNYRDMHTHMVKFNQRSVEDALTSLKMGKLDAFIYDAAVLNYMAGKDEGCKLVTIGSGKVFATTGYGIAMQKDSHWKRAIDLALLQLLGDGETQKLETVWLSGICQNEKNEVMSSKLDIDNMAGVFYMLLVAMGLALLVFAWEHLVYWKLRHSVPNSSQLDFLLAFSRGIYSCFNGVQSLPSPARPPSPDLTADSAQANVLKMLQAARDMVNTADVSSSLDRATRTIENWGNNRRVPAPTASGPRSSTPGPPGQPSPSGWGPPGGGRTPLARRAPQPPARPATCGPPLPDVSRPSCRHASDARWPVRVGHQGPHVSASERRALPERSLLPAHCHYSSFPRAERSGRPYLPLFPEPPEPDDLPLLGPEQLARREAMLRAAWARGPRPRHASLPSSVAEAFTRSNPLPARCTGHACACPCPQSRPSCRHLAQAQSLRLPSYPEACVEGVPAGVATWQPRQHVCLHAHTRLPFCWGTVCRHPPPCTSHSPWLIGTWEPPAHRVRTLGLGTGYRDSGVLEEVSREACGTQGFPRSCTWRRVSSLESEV

Consider `CC(C)C[C@H](NC(=O)[C@H](CC(C(=O)O)C(=O)O)NC(=O)[C@H](CCCNC(=N)N)NC(=O)[C@H](C)NC(=O)[C@H](Cc1ccccc1)NC(=O)[C@H](CC(C(=O)O)C(=O)O)NC(=O)[C@@H]1C[C@@H](O)CN1C(=O)[C@H](C)NC(=O)[C@H](CCCCN)NC(=O)[C@H](CC(C(=O)O)C(=O)O)NC(=O)[C@H](C)NC(=O)[C@H](CC(C)C)NC(=O)[C@H](CC(C(=O)O)C(=O)O)NC(=O)[C@H](CC(C(=O)O)C(=O)O)NC(=O)[C@H](CCC(=O)O)NC(=O)CN)C(=O)N[C@@H](C)C(=O)N[C@@H](CC(N)=O)C(N)=O` [ConRl-B], for which the “potency on NR1-2a-containing subtypes” value in data set [1] is on record as “little or no potency”. Further, in data set [2], the “estimated helical content in the presence of calcium” value was 59%, the “estimated percentage of helicity in the absence of calcium” value is on record as 10% and the “percent of helical transition induced by calcium” value was 49%. Besides, in data set [3], the “antagonist activity at the highest concentration tested, NR2C” value is “little or no antagonist activity”. Besides, in data set [4], the “discrimination between NR2B and all other NR2 subunits” value is recorded as “at least 100 fold”. Moreover, the “antagonist activity at the highest concentration tested, NR2D” value in data set [5] is “little or no antagonist activity”. For the same compound, the “rectal body temperature versus saline control group” value in data set [6] (mouse, in vivo) was “did not differ between groups”. Also, the “mice protected from seizures” value in data set [6] (n=8) worked out at 50%.
